What was measured:
[1] = tested on: wild-type soybean plants (CK1); assay: Sulfometuron-methyl tolerance of wild-type soybean plants, damage degree; assay type: in vivo; details: 120 g ai/ha
From the text: (§1) The herbicide tolerance effects of Gm cytoplasmic ALT-1-01 soybean plants, Gm chloroplastic ALT-1-01 soybean plants, Gm cytoplasmic ALT-2-01 soybean plants, Gm chloroplastic ALT-2-01 soybean plants, Gm cytoplasmic ALT-3-01 soybean plants, Gm chloroplastic ALT-3-01 soybean plants and wild-type soybean plants on Sulfometuron-methyl were detected (at seedling stage), respectively.
Gm cytoplasmic ALT-1-01 soybean plants, Gm chloroplastic ALT-1-01 soybean plants, Gm cytoplasmic ALT-2-01 soybean plants, Gm chloroplastic ALT-2-01 soybean plants, Gm cytoplasmic ALT-3-01 soybean plants, Gm chloroplastic ALT-3-01 soybean plants and wild-type soybean plants were respectively taken and sprayed with Sulfometuron-methyl (120 g ai/ha, 4-fold field concentration) and a blank solvent (water). The damage degree caused by the herbicide was measured for each plant according to the leaf curl degree and the growth point damage degree 3 days after spraying (3 DAT), 7 days after spraying (7 DAT), 14 days after spraying (14 DAT) and 21 days after spraying (21 DAT), respectively: considering conditions of leaves being flat as the untreated plants and growth points being intact as having a damage degree of 0%; considering conditions of veins being locally browned, new leaves being malformed and plant growth being slow as having a damage degree of 50%; and considering conditions of veins being purple to whole plant being dead and growth points being browned and dry as having a damage degree of 100%. There were 2 strains in Gm cytoplasmic ALT-1-01 soybean plants in total (S1 and S2), 2 strains in Gm chloroplastic ALT-1-01 soybean plants in total (S3 and S4), 2 strains in Gm cytoplasmic ALT-2-01 soybean plants in total (S5 and S6), 2 strains in Gm chloroplastic ALT-2-01 soybean plants in total (S7 and S8), 2 strains in Gm cytoplasmic ALT-3-01 soybean plants in total (S9 and S10), 2 strains in Gm chloroplastic ALT-3-01 soybean plants in total (S11 and S12), and 1 strain in wild-type soybean plants (CK1) in total; and 10-15 plants were selected from each strain and tested.

[2] = tested on: transgenic maize plants (Zm cytoplasmic/chloroplastic ALT-1-02, ALT-2-02, ALT-3-02); assay: Sulfometuron-methyl tolerance of transgenic maize plants, damage degree by plant growth status; assay type: in vivo; details: 120 g ai/ha; for Average damage % 3DAT / Average damage % 7DAT / Average damage % 14DAT / Average damage % 21DAT: 4-fold field concentration; for Average damage % 3DAT: 3 days after spraying; for Average damage % 7DAT: 7 days after spraying; for Average damage % 14DAT: 14 days after spraying; for Average damage % 21DAT: 21 days after spraying
From the text: as §1, with “Zm” for “Gm”, “ALT-1-02 maize” for “ALT-1-01 soybean”, “ALT-2-02 maize” for “ALT-2-01 soybean”, “ALT-3-02 maize” for “ALT-3-01 soybean”, “maize” for “soybean”, “V3-V4” for “seedling”
Zm cytoplasmic ALT-1-02 maize plants, Zm chloroplastic ALT-1-02 maize plants, Zm cytoplasmic ALT-2-02 maize plants, Zm chloroplastic ALT-2-02 maize plants, Zm cytoplasmic ALT-3-02 maize plants, Zm chloroplastic ALT-3-02 maize plants and wild-type maize plants were respectively taken and sprayed with Sulfometuron-methyl (120 g ai/ha, 4-fold field concentration) and a blank solvent (water). The damage degree caused by the herbicide was measured for each plant according to the plant growth status 3 days after spraying (3 DAT), 7 days after spraying (7 DAT), 14 days after spraying (14 DAT) and 21 days after spraying (21 DAT), respectively: considering a growth status equivalent to that of the untreated plants as having a damage degree of 0%; considering conditions of leaves being partially chlorotic and yellow but substantially not affecting the plant normal growth as having a damage degree of 50%; and considering the whole plant being purple and dying as having a damage degree of 100%. There were 2 strains in Zm cytoplasmic ALT-1-02 maize plants in total (S13 and S14), 2 strains in Zm chloroplastic ALT-1-02 maize plants in total (S15 and S16), 2 strains in Zm cytoplasmic ALT-2-02 maize plants in total (S17 and S18), 2 strains in Zm chloroplastic ALT-2-02 maize plants in total (S19 and S20), 2 strains in Zm cytoplasmic ALT-3-02 maize plants in total (S21 and S22), 2 strains in Zm chloroplastic ALT-3-02 maize plants in total (S23 and S24), and 1 strain in wild-type maize plants (CK2) in total; and 10-15 plants were selected from each strain and tested.

[3] = strain S13 (Zm cytoplasmic ALT-1-02 maize)
[4] = strain S14 (Zm cytoplasmic ALT-1-02 maize)
[5] = strain S15 (Zm chloroplastic ALT-1-02 maize)
[6] = strain S16 (Zm chloroplastic ALT-1-02 maize)
[7] = strain S17 (Zm cytoplasmic ALT-2-02 maize)
[8] = strain S18 (Zm cytoplasmic ALT-2-02 maize)
[9] = strain S19 (Zm chloroplastic ALT-2-02 maize)
[10] = strain S20 (Zm chloroplastic ALT-2-02 maize)
[11] = strain S21 (Zm cytoplasmic ALT-3-02 maize)
[12] = strain S22 (Zm cytoplasmic ALT-3-02 maize)
[13] = strain S23 (Zm chloroplastic ALT-3-02 maize)
[14] = strain S24 (Zm chloroplastic ALT-3-02 maize)

SMILES: COC(=O)c1ccccc1S(=O)(=O)NC(=O)Nc1nc(C)cc(C)n1 [Sulfometuron-methyl, 2-(4,6-dimethylpyrimidine-2-amino-formamido-sulfonyl) methyl benzoate]
- Average damage % 3DAT ([1]; CK1 (wild-type soybean), 4-fold field concentration, 3 days after spraying): 49%
- Average damage % 7DAT ([1]; CK1 (wild-type soybean), 4-fold field concentration, 7 days after spraying): 87%
- Average damage % 14DAT ([1]; CK1 (wild-type soybean), 4-fold field concentration, 14 days after spraying): 100%
- Average damage % 21DAT ([1]; CK1 (wild-type soybean), 4-fold field concentration, 21 days after spraying): 100%
- herbicide tolerance of wild-type plants ([1]; wild-type soybean plants): not tolerant
- Average damage % 3DAT [2, 3]: 6%
- Average damage % 7DAT [2, 3]: 0%
- Average damage % 14DAT [2, 3]: 0%
- Average damage % 21DAT [2, 3]: 0%
- Average damage % 3DAT [2, 4]: 7%
- Average damage % 7DAT [2, 4]: 0%
- Average damage % 14DAT [2, 4]: 0%
- Average damage % 21DAT [2, 4]: 0%
- Average damage % 3DAT [2, 5]: 0%
- Average damage % 7DAT [2, 5]: 0%
- Average damage % 14DAT [2, 5]: 0%
- Average damage % 21DAT [2, 5]: 0%
- Average damage % 3DAT [2, 6]: 0%
- Average damage % 7DAT [2, 6]: 0%
- Average damage % 14DAT [2, 6]: 0%
- Average damage % 21DAT [2, 6]: 0%
- Average damage % 3DAT [2, 7]: 6%
- Average damage % 7DAT [2, 7]: 0%
- Average damage % 14DAT [2, 7]: 0%
- Average damage % 21DAT [2, 7]: 0%
- Average damage % 3DAT [2, 8]: 5%
- Average damage % 7DAT [2, 8]: 0%
- Average damage % 14DAT [2, 8]: 0%
- Average damage % 21DAT [2, 8]: 0%
- Average damage % 3DAT [2, 9]: 0%
- Average damage % 7DAT [2, 9]: 0%
- Average damage % 14DAT [2, 9]: 0%
- Average damage % 21DAT [2, 9]: 0%
- Average damage % 3DAT [2, 10]: 0%
- Average damage % 7DAT [2, 10]: 0%
- Average damage % 14DAT [2, 10]: 0%
- Average damage % 21DAT [2, 10]: 0%
- Average damage % 3DAT [2, 11]: 5%
- Average damage % 7DAT [2, 11]: 0%
- Average damage % 14DAT [2, 11]: 0%
- Average damage % 21DAT [2, 11]: 0%
- Average damage % 3DAT [2, 12]: 5%
- Average damage % 7DAT [2, 12]: 0%
- Average damage % 14DAT [2, 12]: 0%
- Average damage % 21DAT [2, 12]: 0%
- Average damage % 3DAT [2, 13]: 0%
- Average damage % 7DAT [2, 13]: 0%
- Average damage % 14DAT [2, 13]: 0%
- Average damage % 21DAT [2, 13]: 0%
- Average damage % 3DAT [2, 14]: 0%
- Average damage % 7DAT [2, 14]: 0%
- Average damage % 14DAT [2, 14]: 0%
- Average damage % 21DAT [2, 14]: 0%
- herbicide tolerance conferred by the thifensulfuron hydrolase (ALT-1, ALT-2 and ALT-3) ([2]; transgenic maize plants): conferred a high level of Sulfometuron-methyl herbicide tolerance
